Results on 1 compound are retold here after BindingDB's records for PubMed 33873056 (California Institute of Technology, 2021).

Usually IC50 stands for the concentration needed to halve the response being measured. A low value points to inhibition by little substance.

The structures appear in SMILES notation.

For this experiment, the target named is Transitional endoplasmic reticulum ATPase (Homo sapiens) (UniProt P55072). Briefly: Inhibition of p97 (unknown origin) expressed in Escherichia coli BL21 (DE3) preincubated for 10 mins followed by ATP addition measured for 30 to 120 mins by malachite green based assay.
Sequence of Transitional endoplasmic reticulum ATPase (Homo sapiens) (P55072 whole entry, looked up): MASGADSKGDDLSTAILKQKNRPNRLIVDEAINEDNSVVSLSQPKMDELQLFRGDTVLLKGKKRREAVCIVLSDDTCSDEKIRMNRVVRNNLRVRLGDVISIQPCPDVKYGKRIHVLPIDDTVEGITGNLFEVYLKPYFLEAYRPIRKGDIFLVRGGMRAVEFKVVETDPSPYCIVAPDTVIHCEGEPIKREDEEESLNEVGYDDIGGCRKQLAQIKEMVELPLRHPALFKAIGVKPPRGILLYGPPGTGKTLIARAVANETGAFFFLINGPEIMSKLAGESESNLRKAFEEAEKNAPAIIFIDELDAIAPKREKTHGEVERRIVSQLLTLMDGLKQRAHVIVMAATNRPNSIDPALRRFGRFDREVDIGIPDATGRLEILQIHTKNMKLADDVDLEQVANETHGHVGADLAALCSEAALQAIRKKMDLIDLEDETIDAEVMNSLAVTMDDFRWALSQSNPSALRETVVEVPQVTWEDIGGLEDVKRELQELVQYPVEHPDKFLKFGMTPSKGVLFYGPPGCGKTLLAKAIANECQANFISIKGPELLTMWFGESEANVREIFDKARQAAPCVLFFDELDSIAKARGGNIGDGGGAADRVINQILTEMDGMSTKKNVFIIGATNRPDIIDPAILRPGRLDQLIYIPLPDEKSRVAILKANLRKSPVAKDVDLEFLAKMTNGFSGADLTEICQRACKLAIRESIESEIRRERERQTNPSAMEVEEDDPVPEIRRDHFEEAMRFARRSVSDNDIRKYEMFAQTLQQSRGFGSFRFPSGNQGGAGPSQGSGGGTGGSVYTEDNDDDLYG

For the compound `C[C@H]1CCC/C=C/C(=O)c2c(O)cc(O)cc2CC(=O)O1` [DEHYDROCURVULARIN], the IC50 worked out at 15.3 µM.
